The test system of one data set is 293T cells. Kind of data set: Cell viability assay (MTT). It counts as cell-based, human. The method, then: (§1) Human HepG2 cells (ATCC HB-8065) and 293T cells (ATCC CRL-11268) were cultured in Dulbecco's modified Eagle's medium (DMEM) supplemented with 10% (v/v) fetal calf serum. Human MRC-5 cells (ATCC CCL171) and HEp-2 cells (ATCC CCL-23) were cultured in Eagle's minimum essential medium (MEM) supplemented with 10% fetal calf serum. These four human cell lines were seeded into 24-well polystyrene tissue culture plates at a cell density of 1×10^5 cells/500 μL medium per well, respectively. After incubation at 37° C. for 24 hrs, β-PGG was added into each well in various amounts (0, 6.25, 12.5, 25 and 50 μM). After 24 hr treatment of β-PGG, toxicity of β-PGG to these human cell lines was determined using the 3-(4,5-dimethylthiazol-2-yl)-2,5-diphenyltetrazolium bromide (MTT) method (Xiangshu Piao et al. (2008), supra). Additionally, toxicity of β-PGG to the 293T cells was also determined in medium containing 0% and 2% fetal calf serum. Cells treated with DMSO were used as a negative control.

In the next data set the test system is HEp-2 cells. Kind of data set: Cell viability assay (MTT). Type of data set: cell-based, human. The note with it: concentrations below 50 μM, 24 hr treatment, 10% fetal calf serum. On the procedure: as §1
The next data set has as its system MRC-5 cells. Kind of data set: Cell viability assay (MTT). The settings on record: concentrations below 50 μM, 24 hr treatment, 10% fetal calf serum. Type of data set: cell-based, human. On the procedure: as §1
The next data set has as its system HepG2 cells. The data set is described as follows: Cell viability assay (MTT). The settings on record: concentrations below 50 μM, 24 hr treatment, 10% fetal calf serum. It counts as cell-based, human. On the procedure:
as §1

A further data set concerns Acinetobacter baumannii. The data set is described as follows: Anti-biofilm activity (data not shown). It counts as cell-based.
For data set [1], the system named is S. aureus SA113. Kind of data set: Fluorescence microscopy of adhered cells after Syto 9 staining. It counts as cell-based, Staphylococcus aureus. The settings on record: 6.25 μM and 12.5 μM, 60 min. On the procedure:
Meanwhile, cells adhering to the polystyrene or polycarbonate surfaces were washed off with PBS at 60 min after seeding and stained with Syto 9 (Invitrogen), a green florescence dye that stains nucleic acids, followed by observation under a fluorescence microscope.
The cells adhering to the polystyrene surface and polycarbonate surface after treatment with 0 μM, 6.25 μM and 12.5 μM β-PGG for 60 min were also examined under a fluorescent microscope after Syto 9 staining.

Data set [2] relates to S. epidermidis RP62A (ATCC 35984). The data set is described as follows: Growth (A578) and biofilm (A595) in polystyrene plates. It counts as cell-based, Staphylococcus epidermidis. On the procedure:
(§2) In addition to the above S. aureus strains, S. epidermidis ATCC 35547 and S. epidermidis RP62A (ATCC 35984) were also studied for comparison.
(§3) An overnight bacterial culture was 200-fold diluted with TSBg, and a 200 μL aliquot of the diluted culture was seeded into each well of 96-well polystyrene microtiter plates and incubated at 37° C. for a designated period of time. Cell growth was determined by measuring the absorbance at 578 nm (A578) with a microtiter plate reader (SpectraMax 340, Molecular Devices). After washing with PBS twice to remove suspended cells, the wells were stained with 0.1% (w/v) crystal violet in 10% ethanol and then treated with 30% acetic acid in dH2O, followed by detecting the absorbance at 595 nm (A595) with the microtiter plate reader to quantify the amount of biofilm formed on polystyrene surface.

In data set [3] the test system is S. epidermidis ATCC 35547. The data set is described as above. Type of data set: cell-based, Staphylococcus epidermidis. The note with it: 12.5 μM β-PGG, 6 hr. On the procedure: as §2, §3
Data set [4] deals with clinical strains SA289, SA44, SA435 and SA703. Kind of data set: Biofilm formation by four less sensitive clinical strains at 50 μM (data not shown). It counts as cell-based, Staphylococcus aureus. The note with it: across the four clinical strains. On the procedure: as §3
Data set [5] concerns S. aureus SA113. Kind of data set: Biofilm formation on β-PGG/polyaniline-coated polystyrene wells (safranin staining). The note with it: polyaniline carrier, 24 hrs. It counts as cell-based, Staphylococcus aureus. On the procedure:
β-PGG (stock conc.: 8.89 μg/mL in DMSO) in various amounts was evenly mixed with a fixed amount of polyaniline (40 μL, 3 mg/mL in DMSO) so as to provide a 100 μL β-PGG/polyaniline mixture with a final β-PGG concentration of 0.47 μM, 0.94 μM, 1.89 μM, 3.78 μM, 4.73 μM or 5.67 μM. The resultant β-PGG/polyaniline mixture was coated on the inner surfaces of the wells of 96-well polystyrene microtiter plates in an amount of 100 μL per well. After β-PGG coating, the plates were dried in a vacuum chamber, followed by UV sterilization for 30 min. An overnight culture of S. aureus SA113 was 200-fold diluted with TSBg, and a 200 μL aliquot of the diluted culture was seeded into each well of the β-PGG-coated microtiter plates. After culturing at 37° C. for 24 hrs, the wells were washed twice with PBS, and then examined by safranin staining according to a method described earlier (Christine Heilmann et al. (1996), Infect. Immun., 64 (1):277-282), so as to quantify the amount of biofilm formed on the β-PGG-coated polystyrene surface.

Regarding `O=C(OC[C@H]1O[C@@H](OC(=O)c2cc(O)c(O)c(O)c2)[C@H](OC(=O)c2cc(O)c(O)c(O)c2)[C@@H](OC(=O)c2cc(O)c(O)c(O)c2)[C@@H]1OC(=O)c1cc(O)c(O)c(O)c1)c1cc(O)c(O)c(O)c1` [β-PGG, 1,2,3,4,6-penta-O-galloyl-β-D-glucopyranose], the “cell viability (MTT)” value with 293T cells (concentrations below 50 μM, 24 hr treatment, 10% fetal calf serum) is on record as “did not affect the viability”; with HEp-2 cells it was “did not affect the viability”; in the data set on MRC-5 cells, “did not affect the viability”; with HepG2 cells, “did not affect the viability”. The “influence of serum concentration on toxicity” value in the data set with 293T cells (medium with 2% or 0% fetal calf serum) is listed as “no influence upon the toxicity”. The anti-biofilm activity result in the data set with Acinetobacter baumannii is “potent to mild anti-biofilm activity”. The “cells attached to polystyrene and polycarbonate surfaces (Syto 9)” value with S. aureus SA113 [1] is listed as “significantly reduced the number of cells attached”. The results for the “reduction of biofilm formation” value in data set [2] (12.5 μM) and in data set [4] were 35% and 83-97%, respectively. The “Growth (A578)” value in [2] (12.5 μM β-PGG, 6 hr, 0 μM: 0.57 ± 0.09) was 0.56 ± 0.09; in [3] (0 μM: 0.50 ± 0.01), 0.42 ± 0.01. Moreover, the “Biofilm (A595)” value is reported as 4.18 ± 0.54 in data set [2] (12.5 μM β-PGG, 6 hr, 0 μM: 6.43 ± 0.04) and 0.15 ± 0.11 in data set [3] (0 μM: 1.42 ± 0.09). Further, in the data set on S. aureus SA113 [5] (coated with β-PGG at 1.9 μM or lower), the “biofilm formation on coated polystyrene wells” value is listed as “slightly affected”. Also, the “decrease of the amount of biofilm on coated polystyrene wells” value in the data set on S. aureus SA113 [5] (coated with β-PGG at a concentration higher than 3.8 μM) is reported as “more than 90%”.

Source of the values: patent US9181290B2, “Inhibition of biofilm formation by 1,2,3,4,6-penta-O-galloyl-D-glucopyranose” (CHANG GUNG UNIVERSITY, priority 2011, dated 2015).
